Type in all cases: biochemical
In one test the target is T1, PDK-1 (Homo sapiens, UniProt O15530).
T1 sequence (O15530 1-556): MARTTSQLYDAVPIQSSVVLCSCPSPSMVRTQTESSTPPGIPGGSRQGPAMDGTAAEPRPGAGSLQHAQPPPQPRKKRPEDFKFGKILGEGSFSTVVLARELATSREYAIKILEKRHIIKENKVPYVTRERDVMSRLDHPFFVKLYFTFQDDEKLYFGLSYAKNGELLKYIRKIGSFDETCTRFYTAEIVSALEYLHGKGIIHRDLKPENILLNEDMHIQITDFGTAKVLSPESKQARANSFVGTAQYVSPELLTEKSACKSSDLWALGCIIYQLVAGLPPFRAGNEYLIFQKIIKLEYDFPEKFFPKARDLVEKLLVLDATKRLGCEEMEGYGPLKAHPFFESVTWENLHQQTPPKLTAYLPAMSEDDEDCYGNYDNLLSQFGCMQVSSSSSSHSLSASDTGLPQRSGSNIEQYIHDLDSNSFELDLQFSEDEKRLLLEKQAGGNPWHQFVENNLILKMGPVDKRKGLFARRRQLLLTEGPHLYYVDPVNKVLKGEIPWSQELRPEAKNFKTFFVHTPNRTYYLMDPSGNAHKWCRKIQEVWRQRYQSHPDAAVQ
In words: PDK-1 inhibition assay (radioactive-phosphate incorporation). Particulars: 40 μM ATP, 65 μM PDKtide, 25 nM PDK-1, 30° C.

The next test has as its target PKA (Homo sapiens, UniProt P17612). In words: PKA inhibition assay (standard coupled enzyme assay). Particulars: 50 μM ATP, 80 μM Kemptide, 18 nM PKA, 30° C. The gist of the method: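 Coupled PK/LDH assay (NADH read) with 18 nM PKA, 50 μM ATP and 80 μM Kemptide in 100 mM HEPES 7.5, 10 mM MgCl2, 3% DMSO at 30 °C. Compound dilutions (typically from 5 μM final) preincubated 10 min before ATP start; initial rates over 15 min gave IC50 and Ki by non-linear regression.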

The next test concerns the target AKT-3 (Homo sapiens, UniProt Q9Y243). Kind of test: AKT-3 inhibition assay (standard coupled enzyme assay). Particulars: 170 μM ATP, 200 μM peptide, 45 nM AKT, 30° C.

Each structure is given as a SMILES string.

This is an account of results in patent US7041687B2, “Indazole compounds useful as protein kinase inhibitors” (Vertex Pharmaceuticals Incorporated, priority 2002, dated 2006).

AKT-3, sequence (Q9Y243 whole entry): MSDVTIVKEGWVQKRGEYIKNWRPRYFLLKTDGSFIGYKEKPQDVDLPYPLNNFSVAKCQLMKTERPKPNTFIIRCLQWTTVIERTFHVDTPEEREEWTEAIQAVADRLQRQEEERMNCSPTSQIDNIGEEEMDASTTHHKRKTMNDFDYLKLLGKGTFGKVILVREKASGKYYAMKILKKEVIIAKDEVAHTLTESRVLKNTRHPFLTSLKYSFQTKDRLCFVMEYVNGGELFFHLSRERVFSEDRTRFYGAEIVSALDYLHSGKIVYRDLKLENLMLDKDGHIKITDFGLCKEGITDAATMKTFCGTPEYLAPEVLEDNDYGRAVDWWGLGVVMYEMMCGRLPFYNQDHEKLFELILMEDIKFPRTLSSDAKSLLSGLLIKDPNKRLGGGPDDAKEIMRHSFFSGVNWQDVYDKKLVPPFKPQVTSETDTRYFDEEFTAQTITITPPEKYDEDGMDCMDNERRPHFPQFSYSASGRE
Procedure for AKT-3: Assays were carried out in a mixture of 100 mM HEPES 7.5, 10 mM MgCl2, 25 mM NaCl, 1 mM DTT and 3% DMSO. Final substrate concentrations in the assay were 170 μM ATP (Sigma Chemicals) and 200 μM peptide (RPRAATF, American Peptide, Sunnyvale, Calif.). Assays were carried out at 30° C. and 45 nM AKT. Final concentrations of the components of the coupled enzyme system were 2.5 mM phosphoenolpyruvate, 300 μM NADH, 30 μg/ML pyruvate kinase and 10 μg/ml lactate dehydrogenase.
An assay stock buffer solution was prepared containing all of the reagents listed above, with the exception of AKT, DTT, and the test compound of interest. 55 μl of the stock solution was placed in a 96 well plate followed by addition of 2 μl of 1 mM DMSO stock containing the test compound (final compound concentration 30 μM). The plate was pre-incubated for about 10 minutes at 30° C. and the reaction initiated by addition of 10 μl of enzyme (final concentration 45 nM) and 1 mM DTF. Rates of reaction were obtained using a Molecular Devices SpectraMax Plus plate reader over a 15 minute read time at 30° C.
Procedure for PDK-1: Compounds were screened for their ability to inhibit PDK-1 using a radioactive-phosphate incorporation assay (Pitt and Lee, J. Biomol. Screen., (1996) 1, 47). Assays were carried out in a mixture of 100 mM HEPES (pH 7.5), 10 mM MgCl2, 25 mM NaCl, 2 mM DTT. Final substrate concentrations in the assay were 40 μM ATP (Sigma Chemicals) and 65 μM peptide (PDKtide, Upstate, Lake Placid, N.Y.). Assays were carried out at 30° C. and 25 nM PDK-1 in the presence of ˜27.5 nCi/μL of [γ-^32P]ATP (Amersham Pharmacia Biotech, Amersham, UK). An assay stock buffer solution was prepared containing all of the reagents listed above, with the exception of ATP, and the test compound of interest. 15 μl of the stock solution was placed in a 96 well plate followed by addition of 1 μl of 0.5 mM DMSO stock containing the test compound (final compound concentration 25 μM, final DMSO concentration 5%). The plate was preincubated for about 10 minutes at 30° C. and the reaction initiated by addition of 4 μl ATP (final concentration 40 μM).
The reaction was stopped after 10 minutes by the addition of 100 μL 100 mM phosphoric acid, 0.01% Tween-20. A phosphocellulose 96 well plate (Millipore, Cat no. MAPHNOB50) was pretreated with 100 μL 100 mM phosphoric acid, 0.01% Tween-20 prior to the addition of the reaction mixture (100 μL). The spots were left to soak for at least 5 minutes, prior to wash steps (4×200 μL 100 mM phosphoric acid, 0.01% Tween-20). Alter drying, 20 μL Optiphase ‘SuperMix’ liquid scintillation cocktail (Perkin Elmer) was added to the well prior to scintillation counting (1450 Microbeta Liquid Scintillation Counter, Wallac).

Turning to `NCCC(C(=O)Nc1ccc2[nH]nc(Nc3cccc(OCc4ccccc4)c3)c2c1)c1ccc(Cl)c(Cl)c1` (stereo not drawn) [Compound I-161], the Ki (in general, the dissociation constant of the complex between target and ligand, obtained from inhibition or displacement) on PDK-1 was > 3 µM; at PKA it was < 1 µM; at AKT-3, < 1 µM.
Consider `NCCC(C(=O)Nc1ccc2[nH]nc(NC(=O)c3cccnc3)c2c1)c1ccc(Cl)c(Cl)c1` (stereo not drawn) [Compound I-194], for which the Ki on PDK-1, on PKA and on AKT-3 was < 1 µM in each case.
As for `NCCC(C(=O)Nc1ccc2[nH]ncc2c1)c1cccc(OCc2ccccc2)c1` (stereo not drawn) [Compound I-1006], the inhibition constant (Ki) on PDK-1, at PKA and at AKT-3 was < 1 µM each time.
On to `NCCC(C(=O)Nc1ccc2[nH]nc(Nc3ccc(Cl)cc3)c2c1)c1ccc(Cl)c(Cl)c1` (stereo not drawn) [Compound I-163], for which the Ki is > 3 µM at PDK-1, < 1 µM on PKA and < 1 µM on AKT-3.
In the case of `CCc1n[nH]c2ccc(NC(=O)C(CCN)c3ccc(Cl)c(Cl)c3)cc12` (stereo not drawn) [Compound I-118], the Ki is 1 to 3 µM on PDK-1, < 1 µM at PKA and < 1 µM at AKT-3.
In the case of `Cc1n[nH]c2ccc(NC(=O)C(CCN)c3ccc(Cl)s3)cc12` (stereo not drawn) [Compound I-139], the Ki at PDK-1, at PKA and at AKT-3 was < 1 µM in each case.
Turning to `N#Cc1ccc(Nc2n[nH]c3ccc(NC(=O)C(CCN)c4ccc(Cl)c(Cl)c4)cc23)cc1` (stereo not drawn) [Compound I-164], the Ki on PDK-1 was 1 to 3 µM; on PKA, < 1 µM; at AKT-3, < 1 µM.
For the compound `NCCCC(C(=O)Nc1ccc2[nH]ncc2c1)c1ccc(Cl)c(Cl)c1` (stereo not drawn) [Compound I-155], the inhibition constant (Ki) was > 3 µM on PDK-1, < 1 µM at PKA and < 1 µM on AKT-3.
As to `CN(C)CCC(C(=O)Nc1ccc2[nH]ncc2c1)c1ccc(Cl)c(Cl)c1` (stereo not drawn) [Compound I-226], the Ki was > 3 µM at PDK-1, < 1 µM at PKA and < 1 µM on AKT-3.
Consider `CSc1cccc(C(CCN)C(=O)Nc2ccc3[nH]ncc3c2)c1` (stereo not drawn) [Compound I-108], for which the inhibition constant Ki is 1 to 3 µM on PDK-1, < 1 µM on PKA and < 1 µM on AKT-3.
As to `NCC(C(=O)Nc1ccc2[nH]ncc2c1)c1ccc(Cl)cc1` (stereo not drawn) [Compound I-242], the inhibitory constant (Ki) on PDK-1, at PKA and at AKT-3 was < 1 µM throughout.
Take `COc1ccccc1C(CCN)C(=O)Nc1ccc2[nH]ncc2c1` (stereo not drawn) [Compound I-113]: the Ki on PDK-1 was > 3 µM; on PKA it was < 1 µM; on AKT-3, 1 to 10 µM.
As to `NCC(C(=O)Nc1ccc2[nH]nc(-c3ccccc3)c2c1)c1ccc(Cl)c(Cl)c1` (stereo not drawn) [Compound I-231], the inhibitory constant (Ki) on PDK-1, at PKA and at AKT-3 was < 1 µM each time.
As to `NCCC(C(=O)Nc1ccc2[nH]ncc2c1)c1cccc(N)c1` (stereo not drawn) [Compound I-107], the Ki is 1 to 3 µM at PDK-1, < 1 µM on PKA and 1 to 10 µM at AKT-3.
As to `NCCC(C(=O)Nc1ccc2[nH]nc(N)c2c1)c1ccc(Cl)c(Cl)c1` (stereo not drawn) [Compound I-138], the Ki at PDK-1, at PKA and on AKT-3 was < 1 µM in each case.
Take `NCCC(C(=O)Nc1ccc2[nH]nc(Nc3ccc(Br)cc3)c2c1)c1ccc(Cl)c(Cl)c1` (stereo not drawn) [Compound I-166]: the inhibition constant (Ki) on PDK-1 is 1 to 3 µM; at PKA, < 1 µM; at AKT-3, < 1 µM.
With `NCCC(C(=O)Nc1ccc2[nH]nc(NC(=O)c3cccc(Br)c3)c2c1)c1ccc(Cl)c(Cl)c1` (stereo not drawn) [Compound I-186], the Ki on PDK-1 is 1 to 3 µM; at PKA it was < 1 µM; at AKT-3, < 1 µM.
For `NCCC(C(=O)Nc1ccc2[nH]nc(NC(=O)c3ccc(Cl)c(Cl)c3)c2c1)c1ccc(Cl)c(Cl)c1` (stereo not drawn) [Compound I-183], the figures for the inhibition constant Ki on PDK-1, on PKA and at AKT-3 were > 3 µM, < 1 µM and < 1 µM, respectively.
With `N#Cc1cccc(C(=O)Nc2n[nH]c3ccc(NC(=O)C(CCN)c4ccc(Cl)c(Cl)c4)cc23)c1` (stereo not drawn) [Compound I-175], the values for the Ki on PDK-1, at PKA and at AKT-3 were 1 to 3 µM, < 1 µM and < 1 µM, respectively.
Turning to `NCCC(C(=O)Nc1ccc2[nH]ncc2c1)c1ccc2ccccc2c1` (stereo not drawn) [Compound I-102], the Ki is > 3 µM on PDK-1, < 1 µM at PKA and < 1 µM at AKT-3.
Regarding `NCCC(C(=O)Nc1ccc2[nH]nc(NC(=O)c3cccc(F)c3)c2c1)c1ccc(Cl)c(Cl)c1` (stereo not drawn) [Compound I-179], the Ki on PDK-1, on PKA and on AKT-3 was < 1 µM throughout.
As for `NCCC(C(=O)Nc1ccc2[nH]ncc2c1)c1cccc(Cl)c1F` (stereo not drawn) [Compound I-101], the Ki at PDK-1 was 1 to 3 µM; at PKA it was < 1 µM; at AKT-3 it was < 1 µM.
Consider `NCCC(C(=O)Nc1ccc2[nH]nc(NC(=O)c3ccc(Br)cc3)c2c1)c1ccc(Cl)c(Cl)c1` (stereo not drawn) [Compound I-189], for which the Ki on PDK-1, at PKA and on AKT-3 was < 1 µM in each case.
`CC(=O)Nc1n[nH]c2ccc(NC(=O)C(CCN)c3ccc(Cl)c(Cl)c3)cc12` (stereo not drawn) [Compound I-140]: the Ki at PDK-1 is 1 to 3 µM; on PKA, < 1 µM; on AKT-3 it was < 1 µM.
As to `NCCC(C(=O)Nc1ccc2[nH]nc(NC(=O)c3ccc(-c4ccccc4)cc3)c2c1)c1ccc(Cl)c(Cl)c1` (stereo not drawn) [Compound I-172], the inhibitory constant (Ki) at PDK-1, at PKA and on AKT-3 was < 1 µM throughout.
For the compound `Cc1n[nH]c2ccc(NC(=O)C(CCN)c3ccc(Cl)c(Cl)c3O)cc12` (stereo not drawn) [Compound I-133], the Ki is > 3 µM on PDK-1, < 1 µM at PKA and < 1 µM on AKT-3.
For the compound `NCCC(C(=O)Nc1ccc2[nH]ncc2c1)c1cccc(Br)c1` (stereo not drawn) [Compound I-110], the Ki at PDK-1, on PKA and at AKT-3 was < 1 µM in each case.
Turning to `Cc1n[nH]c2ccc(NC(=O)C(CCN)c3cccc(Cl)c3Cl)cc12` (stereo not drawn) [Compound I-120], the Ki on PDK-1, on PKA and on AKT-3 was < 1 µM each time.
For the compound `Cc1n[nH]c2ccc(NC(=O)C(CCN)c3ccc(Cl)c(Cl)c3)cc12` (stereo not drawn) [Compound I-117], the Ki at PDK-1, at PKA and on AKT-3 was < 1 µM throughout.
`NCCC(C(=O)Nc1ccc2[nH]nc(NC(=O)c3ccc(CN)cc3)c2c1)c1ccc(Cl)c(Cl)c1` (stereo not drawn) [Compound I-198]: the Ki on PDK-1, at PKA and at AKT-3 was < 1 µM throughout.
As to `NCCC(C(=O)Nc1ccc2[nH]nc(Br)c2c1)c1ccc(Cl)c(Cl)c1` (stereo not drawn) [Compound I-122], the inhibitory constant (Ki) at PDK-1 was 1 to 3 µM; at PKA it was < 1 µM; on AKT-3 it was < 1 µM.
Turning to `NCCC(C(=O)Nc1ccc2[nH]nc(-c3ccccc3)c2c1)c1ccc(Cl)c(Cl)c1` (stereo not drawn) [Compound I-119], the Ki at PDK-1, on PKA and on AKT-3 was < 1 µM throughout.
